Earlier results, collected in patent EP1558263B1, “PROLONGED RELEASE PHARMACEUTICAL COMPOSITION” (Akzo Nobel N.V., priority 2002, dated 2004).
In brackets after ≈: the same amount, converted by molar mass.

Test system: Mannheimia haemolytica
Conditions: pathogen of respiratory tract infections in cattle

## CO/N=C(\C(=O)N[C@@H]1C(=O)N2C(C(=O)[O-])=C(C[n+]3cccc4c3CCCC4)CS[C@H]12)c1csc(N)n1 [Cefquinome, cefquinome]
  MIC90: 0.25 µg/mL (≈ 0.473 µM)
